Patent US20040224884A1, “Methods of screening for apoptosis-controlling agents for bone anabolic therapies and uses thereof” (priority 1998, published 2004)
Where “and” joins values, the source holds several entries; their conditions need not be identical. Identical values can stand only once.

What was measured:
[1] = BMD by dual-energy x-ray absorptiometry in intact or ovariectomized mice; assay type: in vivo; parameters: global 1 BMD / hindquart BMD (1) / spine 1 BMD / global 2 BMD / hindquart BMD (2) / spine 2 BMD / global 1 BMD (mean) / hindquart BMD (1) (mean) / spine 1 BMD (mean) / global 2 BMD (mean) / hindquart BMD (2) (mean) / spine 2 BMD (mean): unit not given here; settings: for Global BMD: 2000 ng/g body weight for 28 days; for global 2 BMD / hindquart BMD (2) / spine 2 BMD / global 2 BMD (mean) / hindquart BMD (2) (mean) / spine 2 BMD (mean): 2000 ng/g for 28 days, end of experiment; for global 2 BMD / hindquart BMD (2) / spine 2 BMD / global 1 BMD / hindquart BMD (1) / spine 1 BMD: individual animals; for global 1 BMD / hindquart BMD (1) / spine 1 BMD / global 1 BMD (mean) / hindquart BMD (1) (mean) / spine 1 BMD (mean): 2000 ng/g group, day 0 (initial)
Method: In a representative experiment of this sort, six 4-5 month old female mice per group are screened twice for BMD in a four week period immediately prior to the initiation of the experiment to establish that peak adult bone mass has been attained. A subset of mice are then ovariectomized. Intact and ovariectomized mice are treated with vehicle, or 20, 200 or 2000 ng/g body weight estratriene-3-ol or another test compound.
Stock solutions of the test agents (10,000 μg/ml) are maintained in approximately 2.0 ml of 95% ethanol. These stocks are diluted in 95% ethanol to make 1000 μg/ml and 100 μg/ml concentrations. The concentration of the stocks is checked spectrophotometrically. For each animal injection, the test agent is diluted in sesame oil and sonicated. Test agents are administered for 28 days by subcutaneous injections on alternative days. The mice are weighed weekly and serum samples are collected at appropriate times for analysis of bone biochemical markers, such as osteocalcin or collagen cross-links. Tetracycline labeling is performed by administration of the antibiotic (30 mg/kg) at 2 and 8 days prior to the end of each experiment.
During the 28 day experiment, BMD is determined in live animals at day 0, 14 and 28. Following animal sacrifice at the end of the experiment, the vertebral bones L1-L4 are collected for fixation and embedded undecalcified in methyimethacrylate plastic for the determination of the prevalence of osteoblast and osteocyte apoptosis and other static and dynamic histomorphometric measurements. L5 vertebrae are isolated for determining anti-fracture efficacy of the compounds by assaying compression, 3 point bending and other appropriate biomechanical tests. Results confirming the expected efficacy of these compounds show decreased prevalence of osteoblast and/or osteocyte apoptosis, and/or positive BMD changes, and/or increased cancellous bone area, and/or increased rate of bone formation, and/or increased biomechanical strength.
As an example, the results of an experiment whereby 2000 ng/g body weight of estratriene-3-ol was administered for 28 days to estrogen-replete (intact) or estrogen-deficient (ovariectomized) mice are shown in Table 2.
Each row represents values for individual animals. The first three sets of numbers represent the initial BMD measurements (by dual-energy x-ray absorptiometry with Hologic QDR2000 plus, using customized software) at day 0 and the last three BMD measurements at the end of the experiment. Global=BMD of the entire skeleton minus the head and tail; hindquarters=the mean BMD of both hindlimbs; spine=the BMD of cervical, thoracic and lumbar spine.

wild type HeLa cells = test: Etoposide-induced apoptosis in wild type HeLa cells; assay type: cell-based, human; settings: 10^−8 M, 1 h; etoposide 5×10^−5 M, 6 hour
Text: CMV promoter alone and CMV promoter-driven cDNA for mERα or mErβ were stably transfected into HeLa cells. […] Cells were trypsinized, pelleted and trypan blue positive cells enumerated.
In this experiment, instead of calvaria cells, human HeLa cells which contain undetectable, if any, estrogen receptor were used. HeLa cells were stably transfected with either a CMV promoter-driven cDNA for the murine estrogen receptor-alpha (mERα) or a CMV promoter-driven cDNA for the murine estrogen receptor-beta (mERβ). […] Cells were trypsinized, pelleted and trypan blue positive cells were enumerated.

[2] = Vertebral compression strength of fifth lumbar vertebrae (L5); assay type: in vivo, mice; settings: 2000 ng/g body weight for 28 days
Method: In a representative experiment of this sort, seven 4-5 month old female mice per group-are screened twice for BMD in a four week period immediately prior to the initiation of the experiment to establish that peak adult bone mass has been attained. A subset of mice are then ovariectomized. Intact and ovariectomized mice are treated with vehicle, or 20, 200 or 2000 ng/g body weight estratriene-3-ol or another ANGEL compound. […] Ultimate load bearing properties of the fifth lumbar murine vertebrae (L5) is determined. This is done using a servohydraulic axial-torsional material testing machine (Model MTS 810 Bionx; MTS Systems Corp., Eden Prairie, Minn.) and a Lebow load cell (Eaton Products, Troy, Mich.). Data are recorded and analyzed using the LabVIEW software package and an acquisition/signal conditioning board (Model NB-MIO-16, National Instruments Corporation, Austin, Tex.). The L5 specimens that is used for ultimate load bearing is cleaned of surrounding soft tissue and the length and diameter recorded with a digital caliper at a resolution of 0.01 mm (Mitutoyo Model #500-196, Ace Tools, Ft. Smith, Ariz.). […] Vertebrae are individually compressed between parallel loading platens along the cephalocaudad axis until failure and the ultimate load (in Newtons) and displacement (in mm) are recorded. […]

Structure (SMILES): C[C@@]12CCC[C@H]1[C@@H]1CCc3cc(O)ccc3[C@H]1CC2 [estratriene-3-ol]
- Global BMD ([1]; Ovx mice, p < 0.00001): 0.0555 ± 0.0011 g/cm2
- global 2 BMD ([1]; Ovx mice): 0.0565 and 0.0557 and 0.0548 and 0.0545 and 0.0564 and 0.0568 and 0.0550 and 0.0539
- hindquart BMD (2) ([1]; Ovx mice): 0.0602 and 0.0632 and 0.0599 (2×) and 0.0624 and 0.0598 and 0.0647 and 0.0630
- spine 2 BMD ([1]; Ovx mice): 0.0608 and 0.0585 and 0.0584 and 0.0598 and 0.0610 and 0.0625 and 0.0578 and 0.0605
- global 2 BMD (mean) ([1]; Ovx mice): 0.0555
- hindquart BMD (2) (mean) ([1]; Ovx mice): 0.0618
- spine 2 BMD (mean) ([1]; Ovx mice): 0.0599
- global 1 BMD ([1]; Ovx mice): 0.0505 and 0.0542 and 0.0496 and 0.0540 and 0.0526 and 0.0569 and 0.0565 and 0.0528
- hindquart BMD (1) ([1]; Ovx mice): 0.0527 and 0.0588 and 0.0504 and 0.0596 and 0.0547 and 0.0604 and 0.0591 and 0.0582
- spine 1 BMD ([1]; Ovx mice): 0.0547 and 0.0581 and 0.0542 and 0.0586 and 0.0580 and 0.0628 and 0.0603 and 0.0568
- global 1 BMD (mean) ([1]; Ovx mice): 0.0534
- hindquart BMD (1) (mean) ([1]; Ovx mice): 0.0573
- spine 1 BMD (mean) ([1]; Ovx mice): 0.0579
- Global BMD ([1]; intact mice, p < 0.002): 0.0554 ± 0.0015 g/cm2
- global 2 BMD ([1]; intact mice): 0.0550 and 0.0543 and 0.0541 and 0.0568 (2×) and 0.0537 and 0.0574
- hindquart BMD (2) ([1]; intact mice): 0.0585 and 0.0603 and 0.0619 and 0.0629 and 0.0640 and 0.0554 and 0.0605
- spine 2 BMD ([1]; intact mice): 0.0602 and 0.0604 and 0.0601 and 0.0613 and 0.0620 and 0.0588 and 0.0632
- global 2 BMD (mean) ([1]; intact mice): 0.0554
- hindquart BMD (2) (mean) ([1]; intact mice): 0.0605
- spine 2 BMD (mean) ([1]; intact mice): 0.0609
- global 1 BMD ([1]; intact mice): 0.0486 and 0.0511 and 0.0543 and 0.0537 and 0.0533 and 0.0521 and 0.0560
- hindquart BMD (1) ([1]; intact mice): 0.0509 and 0.0565 and 0.0605 and 0.0577 and 0.0546 and 0.0544 and 0.0587
- spine 1 BMD ([1]; intact mice): 0.0511 and 0.0560 and 0.0593 and 0.0584 and 0.0571 and 0.0555 and 0.0623
- global 1 BMD (mean) ([1]; intact mice): 0.0527
- hindquart BMD (1) (mean) ([1]; intact mice): 0.0562
- spine 1 BMD (mean) ([1]; intact mice): 0.0571
- effect on etoposide-induced apoptosis of wild type HeLa cells (wild type HeLa cells): none of the three compounds had any effect
- Vertebral Compression ([2]; Ovx mice, p < 0.00001): 85.57 ± 10.17 Newtons
- Vertebral Compression ([2]; intact mice, p < 0.006): 96.26 ± 15.92 Newtons
